Experimental data as given in ChEMBL document CHEMBL1150468, “Sch 53823 and Sch 53825, novel fungal metabolites with phospholipase D inhibitory activity” (Bioorg Med Chem Lett, 1996).

Assay: In vitro inhibitory activity in the fMLP-stimulated phospholipase (PLD) assay

Row | IC50 | SMILES
1 | 19 µM | Oc1c(Cl)ccc2c1[C@@H](O)[C@H]1O[C@H]1C21Oc2cccc3cccc(c23)O1
2 | 17 µM | CC(=O)Oc1cccc2c1[C@@H](OC(C)=O)[C@H]1O[C@H]1C21Oc2cccc3cccc(c23)O1
3 | 24 µM | Oc1cccc2c1[C@@H](O)[C@H]1O[C@H]1C21Oc2cccc3cccc(c23)O1
4 | > 50 µM | CC(=O)Oc1c(Cl)ccc2c1[C@@H](OC(C)=O)[C@H]1O[C@H]1C21Oc2cccc3cccc(c23)O1
